The source of these data is patent publication US9040691B2, “Hydroxymethylaryl-substituted pyrrolotriazines as ALK1 inhibitors” (BAYER INTELLECTUAL PROPERTY GMBH, priority 2011, dated 2015).

Each structure is given as a SMILES string.

Assay [1] deals with hSmad7 mRNA in BMP9-stimulated HMVEC. Briefly: Smad7 target gene induction: HMVEC cell assay and TaqMan expression analysis. Format: cell-based. The conditions noted are these: Homo sapiens, hBMP9 stimulation, Smad7 mRNA by TaqMan. As to the method: B-2a. Smad7 Target Gene Induction: HMVEC Cell Assay and TaqMan Expression Analysis
Activation of ALK1 receptors by BMP9 induces the Smad1/5 signalling pathway and enhances expression of target genes Smad6, Smad7 and Id-1. Induction of Smad7-mRNA in BMP9-stimulated endothelial cells was determined to monitor the cellular potency of ALK1 kinase inhibitors.
Human microvascular endothelial cells (IIMVECadult, Cell Systems, St. Katharinen) were seeded in complete ENGS MV medium with all supplements (LifeLine Cell Technology) in 96 well plates with 10 000 cells per well. After 4 h incubation at 37° C. and 7.5% CO2 in a humidified incubator, medium was replaced with minimal medium (ENGS MV without supplements containing 0.02% FCS). After 16 h, test compounds or medium (controls) were added to the cultures, followed 30 min later by addition of hBMP9 (R&D Systems). Medium was removed 1 to 4 h later, plates were gently washed with phosphate-buffered saline, and cells were lysed with 150 μl per well of ice-cold RLT buffer (Qiagen).
Total cellular RNA was isolated with the Trizol® reagent protocol according to the manufacturer's specifications (Invitrogen, USA) and treated with DNAseI to remove genomic DNA contamination.
For relative quantitation of the mRNA distribution of hSmad7, total RNA from each sample was first reverse-transcribed using the ImProm-II Reverse Transcription System (Promega, USA) according to the manufacturer's protocol. The final volume was adjusted to 200 μl with water.
For relative quantitation of selected mRNA, the Applied Bioscience ABI 7900HT Sequence Detection System was used according to the manufacturer's specifications and protocols. PCR reactions were set up to quantitate hSmad7- and the housekeeping gene L32-mRNA. Forward and reverse primers and probes for hSmad7 and L32 were designed using the Applied Bioscience ABI Primer Expressim software and were synthesized by Eurogentec (Belgium). The hSmad7 forward primer sequence was: Primer 1 (SEQ ID NO 1). The hSmad7 reverse primer sequence was: Primer 2 (SEQ ID NO 2). Probe 1 (SEQ ID NO 3), labelled with FAM as the reporter dye and TAMRA as the quencher, was used as a probe for hSmad7. The L32 forward primer sequence was: Primer 3 (SEQ ID NO 4). The L32 reverse primer sequence was: Primer 4 (SEQ ID NO 5). Probe 2 (SEQ ID NO 6), labelled with FAM as the reporter dye and TAMRA as the quencher, was used as a probe for L32.
The following reagents were prepared in a total of 20 μl added per well: 1× qPCR-MasterMix (Eurogentec, Belgium) and hSmad7 forward and reverse primers each at 200 nM, 200 nM hSmad7 FAM/TAMRA-labelled probe 1 (SEQ ID NO 3), and 5 μl of template cDNA. Correspondingly, a second mix in a total of 20 μl was prepared using L32 FAM/TAMRA-labelled probe 2 (SEQ ID NO 6) and L32 forward and reverse primers added per well in parallel samples.
Thermal cycling parameters were 2 min at 50° C., followed by 10 min at 95° C., followed by 40 cycles of melting at 95° C. for 15 sec and annealing/extending at 60° C. for 1 min.
Calculation of Relative Expression:
The Ct (cycle threshold) values were calculated from the turning point of PCR product quantity curves by the ΔΔCt method (delta-delta Ct): ΔCt=CthSmad7−CtL32; relative expression=2^(15-ΔCt).
IC50 values of test compounds were calculated on basis of relative Smad7 expressions at different compound concentrations.

The test system of assay [2] is hSmad7 mRNA in BMP9-stimulated HUVEC. Briefly: Smad7 target gene induction: HUVEC cell assay and TaqMan expression analysis. It counts as cell-based, human. The following applies: 1 ng/ml BMP9 for 3 h, Smad7 mRNA by TaqMan. As to the method:
B-2b. Smad7 Target Gene Induction: HUVEC Cell Assay and TaqMan Expression Analysis
The in vitro potency of ALK1 inhibitors was tested in a cell-based assay. Bone morphogenetic protein 9 (BMP9) induces Smad7 mRNA expression in human vascular endothelial cells (HUVEC) via activation of ALK1.
1.5×10^4 passage 2 HUVECs (Lonza, Basel, Switzerland) per well were seeded in a 96-well plate in EBM-2 medium containing EGM-2 additives and growth factors (Lonza, CC-3156 and CC-4176). After 4 h, the medium was changed to EBM-2 with 0.2% fetal calf serum (FCS) and the cells were starved for 20 h in a humidified incubator at 37° C., 5% CO2. Test compounds were added at 11 different concentrations between 0 and 10 000 nM one hour prior to stimulation of the cells for 3 h with recombinant human BMP9 protein at 1 ng/ml (dissolved in 4 mM hydrochloric acid, 0.1% BSA at 10 μg/ml; R&D Systems, Minneapolis, Minn., USA, 3209BP). Medium was removed, and the cells were lysed in 100 μl RLT buffer (Qiagen, Hilden, Germany). RNA was isolated using the Qiagen RNeasy 96 Kit (order-No. 74182) according to manufacturer's instructions and eluted from the columns with 65 μl RNAse-free water. Reverse transcription for quantitative RT-PCR was carried out with the Omniscript Kit (Qiagen, 205113) in RNAse-free 96-well round-bottom plates. Per well, 6.8 μl of a reaction master mix containing 2 μl 10×RT-buffer, 2 μl dNTPs (5 mM each), 1.6 μl random primer N6 (125 μM), 0.25 μl Rnase Out (40 U/μl) and 1 μl Omniscript Reverse Transcriptase were added. After addition of 13.2 μl of the RNA/water mixture, plate contents were mixed, incubated for 1 h at 37° C. and the total volume adjusted to 100 μl in each well by addition of 80 μl RNAse-free water.
The quantification of human Smad7 mRNA was carried out on a TaqMan using the Eurogentec qPCR Mastermix Plus (RT-QP2X-03-075+; Cologne, Germany) and employing human L32 as housekeeping reference mRNA. Per qPCR reaction, 2.8 μl primer mix, 10 μl master mix, 2.2 μl water and 5 μl cDNA were added. Thermal cycling parameters were 2 min at 50° C., followed by 10 min at 95° C., followed by 40 cycles of melting at 95° C. for 15 sec and annealing/extending at 60° C. for 1 min.
Smad7 mRNA levels induced by 1 ng/ml BMP9 without the addition of any inhibitor were set at 100% induction, and % inhibition was calculated for each test compound with this value. For each test compound, every value was determined in quadruplicate. The IC50 values were determined using Microsoft Excel. The fitting method used was a weighted, unconstrained ML-fit.
(Quantitative PCR measures a nucleic acid by following its amplification.)

The next assay has as its target ALK1 kinase (Homo sapiens (Human), UniProt P37023). Briefly: In vitro enzyme inhibition using scintillation of incorporated radio label (flashplate assay). Format: biochemical. The following applies: biotinylated α-casein, 33P-ATP, 500 nM ATP. As to the method: B-1a. In Vitro Enzyme Inhibition Using Scintillation of Incorporated Radio Label (Flashplate Assay)
Test compounds diluted in DMSO are mixed with a suitable substrate/co-substrate (here: biotinylated α-casein and ^33P-ATP) in a corresponding assay buffer. Addition of the enzyme of interest (here: ALK1 kinase) starts the enzyme reaction. The enzyme-catalyzed incorporation of radio label into the substrate is measured via scintillation. Incorporated radio label is separated from free radio label via specific binding of the biotinylated substrate to strepavidin-coated microtiter plates (flashplates) and concomitant washing steps. The scintillation signal intensity (counts per minutes, cpm) is proportional to the enzyme activity. Enzyme inhibition results in a decreased signal intensity. IC50 values of the test compounds are determined by cpm-versus-[I] plots.
Reaction buffer contains 50 mM Tris pH 8.0 (Sigma), 1 mM MnCl2 (Sigma), 0.01% Nonidet P40 (Fluka), 0.5× Complete EDTA-free protease inhibitors (Roche; contains a mixture of several protease inhibitors for the inhibition of serine and cysteine (but not metallo-) proteases; 1 tablet contains protease inhibitors sufficient for a 50 ml cell extract; the concentration used in this assay corresponds to 1 tablet in 100 ml).
• 1.) Stop solution: Dulbecco's PBS (PAA, Pasching, Austria), 25 mM EDTA (Sigma), 25 μM ATP (Roche), 0.05% Triton X-100 (Sigma); • 2.) Saturation buffer: Dulbecco's PBS (PAA, Pasching, Austria), 100 μM ATP (Roche), 0.2% Triton X-100 (Sigma); • 3.) Wash buffer: Dulbecco's PBS (PAA, Pasching, Austria). Enzyme Solution:
ALK1 (Invitrogen, Paisley, United Kingdom) stock solution (35.7 ng/μl) is diluted to 4 ng/μl; final concentration in the reaction is 1 ng/μl.
Dephosphorylated α-casein (Sigma) is biotinylated according to the manufacturer's protocol (Pierce, Bonn, Germany) resulting in a stock solution of 61.6 μM. Briefly, EZ-Link® Biotin reagent (sulfosuccinimidyl-6-(biotinamido)hexanoate; Pierce, Bonn, Germany) is added in equal molarity to α-casein and incubated on ice for 2 h. Afterwards, the biotin reagent is removed by dialysis (2×2 h and overnight).
A 100 mM solution of cold (unlabelled) ATP (Roche) is diluted 1:100 before each test. For the substrate mix, α-casein is diluted to 2.22 μM resulting in a final concentration of 1 μM α-casein in the reaction. Additionally, cold ATP is added to give a 1.11 μM solution which results in a final concentration of 500 nM in the reaction.
Radioactive ATP Solution:
The stock solution (9.25 MBq/25 μl of ^33P-ATP; Perkin Elmer, Rodgau, Germany) is diluted to 651.2 Bq/μl.
Compounds are dissolved in 100% DMSO (10 mM stock solution) and diluted to 2 mM. Further dilutions are made stepwise 1:3.16 in DMSO.
A volume of 9 μl substrate solution is provided into each well of a 384 well microliter plate (Greiner Bio-One, Solingen, Germany), 1 μl compound solution and 5 μl of the radioactive ATP solution are added. Enzyme reaction starts with addition of 5 μl of enzyme solution. The mixture is incubated for 60 minutes at room temperature and then stopped by addition of 10 μl stop solution. The 384 well microliter flashplates (Perkin Elmer, Rodgau, Germany) are saturated with 50 μl saturation buffer per well for at least 60 minutes. Subsequently, a volume of 20 μl is discarded and replaced with 20 μl of the stopped ALK1 reaction mixture. Binding of biotinylated substrate to the flashplate is allowed for by overnight incubation at room temperature. Bound substrate is separated from unbound components through repeated washing steps (3×50 μl washing buffer per well). Finally, 50 μl washing buffer is added, and the scintillation signal (cpm) is measured in a suitable counter (Perkin Elmer, Rodgau, Germany).

Chain of ALK1 kinase (P37023 22-503): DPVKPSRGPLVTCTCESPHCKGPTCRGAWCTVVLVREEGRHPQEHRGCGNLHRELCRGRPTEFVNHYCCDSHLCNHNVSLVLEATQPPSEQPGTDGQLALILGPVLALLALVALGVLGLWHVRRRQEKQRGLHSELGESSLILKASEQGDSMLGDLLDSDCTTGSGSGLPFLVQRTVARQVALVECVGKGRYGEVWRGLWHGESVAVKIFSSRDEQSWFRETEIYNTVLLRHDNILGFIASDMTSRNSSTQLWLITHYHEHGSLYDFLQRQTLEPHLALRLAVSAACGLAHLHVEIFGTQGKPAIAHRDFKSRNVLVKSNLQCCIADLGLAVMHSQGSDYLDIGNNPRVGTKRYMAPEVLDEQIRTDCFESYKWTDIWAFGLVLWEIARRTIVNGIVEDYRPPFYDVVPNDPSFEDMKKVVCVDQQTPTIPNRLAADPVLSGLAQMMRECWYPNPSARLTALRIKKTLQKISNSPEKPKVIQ

Regarding `Nc1ncnn2c(C3CCNC3)cc(-c3cc(F)c(CO)c(F)c3)c12` (racemic) [Example 8, rac-{4-[4-Amino-7-(pyrrolidin-3-yl)pyrrolo[2,1-f][1,2,4]triazin-5-yl]-2,6-difluorophenyl}methanol], the IC50 (as a rule, the concentration that inhibits the measured activity by half) in assay [1] amounted to 60 nM.

For the compound `COc1cc(-c2cc(C(O)C3CC3)n3ncnc(N)c23)ccc1CO` (racemic) [Example 40, rac-{4-Amino-5-[4-(hydroxymethyl)-3-methoxyphenyl]pyrrolo[2,1-f][1,2,4]triazin-7-yl}(cyclopropyl)methanol], the IC50 was 62 nM in assay [2] (Homo sapiens, 3 h) and 3.2 nM against ALK1 kinase.

In the case of `COc1cc(-c2cc(C(O)C3CC3)n3ncnc(N)c23)ccc1CO` (single isomer, unassigned; ent-4) [Example 41, ent-4-Amino-5-[4-(hydroxymethyl)-3-methoxyphenyl]pyrrolo[2,1-f][1,2,4]triazin-7-yl}(cyclopropyl)methanol (enantiomer 1)], the values for the IC50 (in assay [2]; against ALK1 kinase) were 77 nM and 3.5 nM, respectively.

Regarding `COc1cc(-c2cc(C(O)C3CC3)n3ncnc(N)c23)ccc1CO` (single isomer, unassigned; ent-4) [Example 42, ent-4-Amino-5-[4-(hydroxymethyl)-3-methoxyphenyl]pyrrolo[2,1-f][1,2,4]triazin-7-yl}(cyclopropyl)methanol (enantiomer 2)], the IC50 in assay [2] is 6.6 nM; against ALK1 kinase it was 1.2 nM.

Regarding `COc1cc(-c2cc(C3CCCNC3)n3ncnc(N)c23)cc(F)c1CO` (centres unmarked) [Example 30, {4-[4-Amino-7-(piperidin-3-yl)pyrrolo[2,1-f][1,2,4]triazin-5-yl]-2-fluoro-6-methoxyphenyl}-methanol], the IC50 worked out at 51 nM in assay [2] (Homo sapiens, 3 h) and 2 nM against ALK1 kinase.

In the case of `CC(C)c1cc(-c2cc(F)c(CO)c(F)c2)c2c(N)ncnn12` [Example 43, [4-(4-Amino-7-isopropylpyrrolo[2,1-f][1,2,4]triazin-5-yl)-2,6-difluorophenyl]methanol], the IC50 in assay [2] (Homo sapiens, 3 h) turned out to be 27 nM; at ALK1 kinase, 1.9 nM.
